# In US20060069049A1, “Methods and reagents related to foxo” (President and Fellows of Harvard College, priority 2003, published 2006):
# B1: IGFBP1 oligonucleotide: control oligonucleotide containing a known forkhead site from the IGFBP1 promoter (SEQ ID NO:9/10) (nucleic acid)
# chain 1: CTAGCAAGCAAAACAAACTTATTTTGAACACGGGG
# chain 2: CCCCGTGTTCAAAATAAGTTTGTTTTGCTTGCTAG
# modifications: listed as DNA, chemistry not fully specified
# How the values were obtained:
# S6K = assay: Immunoblot of phosphorylated S6K in C2C12 myotubes; format: cell-based, mouse
# Description: (§1) Anti-phospho-AKT (Ser473), anti-phospho-mTOR (Ser2448), anti-phospho-p70S6K (Thr389), anti-phospho-Foxo1 (Ser 256), anti-phospho-Foxo4 (Ser 193), anti-AKT, anti-p70S6K and anti-Foxo1 were purchased from Cell Signaling. Anti-phospho-Foxo3 (Thr32) and the FKHR (Foxo1)-GST fusion protein were from Upstate. All primary antibodies were rabbit potyclonal antibodies. HRP-conjugated goat anti-rabbit antibody was from Promega.
# (§2) C2C12 mouse myoblasts (ATCC) were cultured in DMEM 10% FCS (ATCC) until the cells reached confluence. At that time, the medium was replaced with DMEM 2% horse serum (HS) (ATCC) (“differentiation medium”) and incubated for 4 days to induce myotube formation before proceeding with experiments. Pharmacological agents were variously used at the following final concentrations: dexamethasone (1 μM; Sigma), IGF-1 (10 ng/ml; Sigma), LiCl (10 mM; Sigma), LY294002 (10 μM, from 10 mM stock in DMSO, Calbiochem). For infection, myotubes were incubated with adenovirus at a multiplicity of infection (MOI) of 250 in differentiation medium for 18 h, and then medium was replaced. Under these conditions, infection efficiency was greater than 90%. Typical experiments for RNA and protein analysis were performed in 6-well plates. Myotube diameter was quantified as follows: five different fields at 100× magnification were chosen randomly and myotubes were measured using IMAGE software (Scion, Frederick, Md.) as previously performed (Rommel et al., 2001). All data are expressed as the mean of five measurements taken along the length of the myotube±SEM. Comparisons were made using the student's t test, with p<0.05 being considered statistically significant.
# Myotube protein was also extracted with TRizo1 reagent according to the manufacturer's instructions. Protein concentration was determined by BCA assay (Pierce). SDS-PAGE was performed on 4-12% gradient gels (Novex, Invitrogen) loading 20 μg protein/lane. […] The relative amounts of the bands were quantified by densitometry using ImageJ software.
# atrogin-1 [1] = assay: Northern blot of atrogin-1 mRNA in C2C12 myotubes; format: cell-based, mouse
# Description: as §2
# After incubation, myotubes were washed in PBS and total RNA was extracted using TRizo1 reagent (Invitrogen) according to the manufacturer's specifications. Northern blotting was performed as described elsewhere (Gomes et al., 2001). Briefly, total RNA was separated on formaldehyde-agarose gels, transferred to Zeta-Probe membrane (Bio-Rad) and UV-crosslinked. Membranes were hybridized with a full length mouse atrogin-1 probe, at 65 ° C., in Church buffer (Church and Gilbert, 1984), and analyzed by using a Fuji Phosphorimager. Blots were stripped and reprobed with a mouse GADPH probe (Ambion) to ensure equal-loading and gel transfer. The relative amounts of the bands were quantified by densitometry.
# AKT = assay: Immunoblot of phospho-AKT to total AKT in C2C12 myotubes; format: cell-based, mouse; details: dexamethasone treatment for 24 hrs, densitometric analysis
# Description: Myotube protein was also extracted with TRizo1 reagent according to the manufacturer's instructions. Protein concentration was determined by BCA assay (Pierce). SDS-PAGE was performed on 4-12% gradient gels (Novex, Invitrogen) loading 20 μg protein/lane. Westerns were performed as previously (Gomes et al., 2001) and were visualized with ECL detection reagents (Amersham). […] The relative amounts of the bands were quantified by densitometry using ImageJ software.
# Foxo1, 3 and Foxo4 = assay: Immunoblot of phosphorylated Foxo factors in C2C12 myotubes; format: cell-based, mouse
# Description: as §1
# C2C12 mouse myoblasts (ATCC) were cultured in DMEM 10% FCS (ATCC) until the cells reached confluence. At that time, the medium was replaced with DMEM 2% horse serum (HS) (ATCC) (“differentiation medium”) and incubated for 4 days to induce myotube formation before proceeding with experiments. […] Myotube diameter was quantified as follows: five different fields at 100× magnification were chosen randomly and myotubes were measured using IMAGE software (Scion, Frederick, Md.) as previously performed (Rommel et al., 2001). All data are expressed as the mean of five measurements taken along the length of the myotube±SEM. […]
# Myotube protein was also extracted with TRizo1 reagent according to the manufacturer's instructions. Protein concentration was determined by BCA assay (Pierce). […] The relative amounts of the bands were quantified by densitometry using ImageJ software.
# C2C12 myotubes = assay: Myotube diameter in C2C12 myotube cultures; format: cell-based, mouse; details: dexamethasone (1 μM) for 24 hrs
# Description: as §2
# FoxoGST = biological target: T1, FoxoGST (Homo sapiens, UniProt Q12778); assay: Electrophoretic mobility shift assay with purified FoxoGST; format: binding; details: for competition of FoxoGST-IGFBP1 complex formation by unlabeled oligonucleotide: 100-fold molar excess of cold competitor; for binding of FoxoGST to 32P-labeled oligonucleotide: gel shift; for competition of FoxoGST-AT Foxo 1 complex formation: increasing amounts of unlabeled oligonucleotide
# T1 construct: purchased Upstate
# Text: Double stranded oligonucleotides were labeled by T4 Polynucleotide kinase and […] (Promega). The following pairs of oligonucleotides were used (Forkhead sites are underlined): IGFBP1: 5′-[…]-3′ (SEQ ID NO:9) and 5′-[…] (SEQ ID NO:10); SP 1:5′-[…]-3′ (SEQ ID NO:11) and 5′[…]-3′ (SEQ ID NO:12); ATFoxo 1: 5′-GGGATAAATACT-GTGCTCGGGCAG-3′ (SEQ ID NO:13) and 5′-[…]-3′ (SEQ ID NO:14). ATFoxo 1mut: 5′-[…]-3′ (SEQ ID NO:15) and 5′ […]-3′ (SEQ ID NO:16). Reactions using the Gel Shift Assay System (Promega) contained the cold competitor (100-fold molar excess over labeled oligonucleotide) and 1 μl of purified FoxoGST (Upstate), and were incubated at room temperature for 10 min. The samples were then mixed with ^32P-labeled oligonucleotides for 20 min and loaded on Novex 6% DNA retardation gels (Invitrogen). After electrophoresis the gels were dried and analyzed using a Fuji Phosphorimager system.
# atrogin-1 [2] = details: reported from Sacheck et al. (manuscript submitted) or Li et al. 2003a; cited from earlier work
# [3] = biological target: Constitutively active FOXO3A constitutively active (AKT phosphorylation sites, residues not stated) (Homo sapiens) (UniProt O43524); assay: cell_activity; details: luciferase in adult mouse muscle
# [4] = biological target: Wild-type FOXO3A (Homo sapiens) (UniProt O43524); assay: cell_activity; details: luciferase in adult mouse muscle
# Sequence of Wild-type FOXO3A (Homo sapiens) (O43524 whole entry): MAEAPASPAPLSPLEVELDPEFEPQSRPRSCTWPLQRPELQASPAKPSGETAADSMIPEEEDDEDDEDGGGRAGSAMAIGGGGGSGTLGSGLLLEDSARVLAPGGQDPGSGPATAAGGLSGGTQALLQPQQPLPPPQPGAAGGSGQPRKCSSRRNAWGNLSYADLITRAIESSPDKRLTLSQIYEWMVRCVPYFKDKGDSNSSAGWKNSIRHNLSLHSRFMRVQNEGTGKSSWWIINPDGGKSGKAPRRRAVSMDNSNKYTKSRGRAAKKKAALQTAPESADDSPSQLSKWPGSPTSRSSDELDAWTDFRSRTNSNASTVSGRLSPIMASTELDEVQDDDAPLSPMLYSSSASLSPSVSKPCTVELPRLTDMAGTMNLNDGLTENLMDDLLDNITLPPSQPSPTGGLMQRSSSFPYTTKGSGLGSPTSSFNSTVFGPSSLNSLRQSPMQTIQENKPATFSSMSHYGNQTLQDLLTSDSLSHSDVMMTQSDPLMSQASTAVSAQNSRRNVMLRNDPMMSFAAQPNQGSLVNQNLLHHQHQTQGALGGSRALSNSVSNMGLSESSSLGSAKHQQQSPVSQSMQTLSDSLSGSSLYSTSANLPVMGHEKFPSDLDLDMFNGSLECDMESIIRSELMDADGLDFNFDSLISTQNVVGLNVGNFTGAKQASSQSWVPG
# T1 sequence (Q12778 whole entry): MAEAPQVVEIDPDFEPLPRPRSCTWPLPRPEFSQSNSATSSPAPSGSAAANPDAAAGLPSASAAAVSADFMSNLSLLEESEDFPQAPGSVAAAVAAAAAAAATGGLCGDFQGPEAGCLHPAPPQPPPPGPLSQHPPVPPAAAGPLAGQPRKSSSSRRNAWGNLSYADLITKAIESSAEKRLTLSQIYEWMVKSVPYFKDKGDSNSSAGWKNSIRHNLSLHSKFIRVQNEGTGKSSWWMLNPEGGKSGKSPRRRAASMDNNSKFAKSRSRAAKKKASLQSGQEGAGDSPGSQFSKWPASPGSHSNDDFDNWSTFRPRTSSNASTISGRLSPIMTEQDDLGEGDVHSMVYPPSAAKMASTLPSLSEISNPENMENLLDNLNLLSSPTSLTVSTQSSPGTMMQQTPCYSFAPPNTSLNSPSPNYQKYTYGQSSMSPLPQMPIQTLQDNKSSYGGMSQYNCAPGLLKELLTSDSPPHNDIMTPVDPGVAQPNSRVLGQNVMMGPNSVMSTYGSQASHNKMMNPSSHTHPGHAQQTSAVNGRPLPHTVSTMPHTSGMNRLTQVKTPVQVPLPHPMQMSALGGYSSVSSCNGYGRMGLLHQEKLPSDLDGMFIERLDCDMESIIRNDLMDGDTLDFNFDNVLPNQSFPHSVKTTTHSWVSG
# Sequence of Constitutively active FOXO3A constitutively active (AKT phosphorylation sites, residues not stated) (Homo sapiens) (O43524 whole entry): as the sequence (O43524 whole entry) above
molecule,measurement,setting,value
"C[C@@H]1C[C@H]2[C@@H]3CCC4=CC(=O)C=C[C@]4(C)[C@@]3(F)[C@@H](O)C[C@]2(C)[C@@]1(O)C(=O)CO [dexamethasone, reference compound]",decrease in level of phosphorylated S6K,S6K; dexamethasone treatment 24 hrs,10%
same,increase in atrogin-1 mRNA content,atrogin-1 [1]; cultured myotubes treated with dexamethasone (1 μM) for 24 hrs,2-3 fold
same,fall in ratio of phospho-AKT to total AKT,AKT,30%
same,decrease in levels of phosphorylated Foxo1 and 3,"Foxo1, 3 and Foxo4; glucocorticoid treatment 24 hrs",at least 30%
same,reduction in mean myotube diameter,C2C12 myotubes,40%
"ATFoxo 1: double stranded oligonucleotide with atrogin-1 promoter forkhead site ATAAATA (SEQ ID NO:13/14) (chain 1 GGGATAAATACTGTGCTCGGGCAG; chain 2 CTGCCCGAGCACAGTATTTATCCC; listed as DNA, chemistry not fully specified)",competition of FoxoGST-IGFBP1 complex formation by unlabeled oligonucleotide,FoxoGST,markedly reduced
same,binding of FoxoGST to 32P-labeled oligonucleotide,FoxoGST,bound
same,competition of FoxoGST-AT Foxo 1 complex formation,FoxoGST,able to block
OO [hydrogen peroxide],effect on atrogin-1 expression in myotubes,atrogin-1 [2],expression of atrogin-1 rose
"oligonucleotide containing an SP1 binding site: unrelated oligonucleotide containing an SP1 binding site (SEQ ID NO:11/12) (chain 1 ATTCGATCGGGGCGGGGCGAG; chain 2 CTCGCCCCGCCCCGATCGTAA; listed as DNA, chemistry not fully specified) [reference compound]",competition of FoxoGST-IGFBP1 complex formation by unlabeled oligonucleotide,FoxoGST,did not prevent complex formation
3.5 kb atrogin-1 promoter,activity,[3],> 20 fold
same,activity,[4],3 fold
"IGF-1: insulin-like growth factor-1, used at 10 ng/ml (Sigma)",S6K phosphorylation after IGF-1 addition,S6K; dexamethasone-treated cultures,restored S6K phosphorylation
same,S6K phosphorylation after IGF-1 addition,S6K; starved cells,remained largely dephosphorylated
same,effect on atrogin-1 mRNA in either model of atrophy,atrogin-1 [1]; IGF-1 10 ng/ml added to starved (6 hrs) or dexamethasone-treated (24 hrs) myotubes,suppressed atrogin-1 mRNA to the level in untreated myotubes
same,effect of IGF-1 on atrogin-1 mRNA,atrogin-1 [1]; cells expressing the constitutively active Foxo3,did not reduce
same,decrease in atrogin-1 mRNA content by IGF-1,"atrogin-1 [1]; cells expressing the wild type Foxo3, IGF-1 10 ng/ml",3 fold
same,"effect on phosphorylated Foxo1, 3 and 4 in either model of atrophy","Foxo1, 3 and Foxo4; IGF-1 10 ng/ml, starved or dexamethasone-treated myotubes","increased the levels of phosphorylated Foxo1, 3, and 4"
"[Cl-].[Li+] [LiCl, reference compound]",effect on atrogin-1 induction by dexamethasone,"atrogin-1 [1]; myotubes, 1 μM dexamethasone 24 hrs",unable to decrease
"ATFoxo 1mut: mutated version of the site, ATCACTA (SEQ ID NO:15/16) (chain 1 GGGATCACTACTGTGCTCGGGCAG; chain 2 CTGCCCGAGCACAGTAGTGATCCC; listed as DNA, chemistry not fully specified)",competition of FoxoGST-IGFBP1 complex formation by unlabeled oligonucleotide,FoxoGST,did not prevent complex formation
same,binding of FoxoGST to 32P-labeled oligonucleotide,FoxoGST,did not bind
same,competition of FoxoGST-AT Foxo 1 complex formation,FoxoGST,not
B1,competition of FoxoGST-IGFBP1 complex formation by unlabeled oligonucleotide,FoxoGST,prevented formation
same,binding of FoxoGST to 32P-labeled oligonucleotide,FoxoGST,bound
